Experimental data as given in US20240130675A1, “Methods for Treating Autism Spectrum Disorder” (The General Hospital Corporation, priority 2021, published 2024).

System: youth with ASD
Experiment: 12-week randomized, double-blind, placebo-controlled trial: efficacy on autism related impairments (SRS-2, CGI-I, ABC-Social Withdrawal, CY-BOCS-PDD)
Type: in vivo, human
Set-up: SRS-SCI / SRS-Social Cognition / SRS-Social Awareness / SRS-Social Motivation / SRS-Social Communication / SRS-Autistic Mannerisms / ABC-Social Withdrawal: scale not given here
Details: for ABC-Social Withdrawal / CY-BOCS-PDD / SRS-Autistic Mannerisms / SRS-SCI / SRS-Social Awareness / SRS-Social Cognition / SRS-Social Communication / SRS-Social Motivation / SRS-Total: MEM [N = 16]
Procedure: This study was a 12-week, randomized, double-blind, placebo-controlled, parallel group clinical trial of memantine in youth with ASD. Youth with ASD who met the eligibility criteria were randomized to receive either memantine or placebo during the course of the 12-week trial. Participants underwent multimodal MRI scans prior to and upon completion of the 12-week trial. Participants were assessed weekly during the titration phase (baseline to Week 4) and at midpoint (Week 6), Week 9, and completion (Week 12) during the maintenance phase. At each study visit, safety and efficacy were assessed by administering measures of efficacy (CGI, GAF), tolerability (assessing treatment-emergent AEs), and safety (vital signs, including weight). At baseline, midpoint, and endpoint (completion/early termination) severity of autism was assessed by administering measures of autism severity (SRS-2, ABC-SW, CY-BOCS-PDD) and associated psychopathology (ADHD-RS, CDRS-R, CASI-ANX).
Eligible participants were of both sexes, aged 8 to 17 years, with intact intellectual ability, as established by a full-scale intelligence quotient of 85 or greater based on the Vocabulary and Matrix Reasoning subtests of the Wechsler Abbreviated Scale of Intelligence-Second Edition (WASI-II (Wechsler, 2011)). Participants were required to meet DSM-IV-TR/5 diagnostic criteria for autism, as established by clinical diagnostic evaluation and to have at least moderate severity of ASD, as determined by a total raw score of 85 or greater on the informant-rated Social Responsiveness Scale-Second Edition (SRS-2; (Constantino et al., 2003)) and a score of 4 or greater on the clinician-rated National Institute of Mental Health (NIMH) Clinical Global Impression (CGI) severity scale (CGI-S; (National Institute of Mental Health, 1985)).
In this 12-week, randomized, double-blind, placebo-controlled, parallel group clinical, ASD participants were randomized in a 1:1 ratio to receive memantine or placebo. An independent statistician created a computer-generated randomization schedule, using stratified randomization by sex (male vs. female) and race (Caucasian vs. Non-Caucasian). The Clinical Trials Pharmacy at MGH dispensed the study medication (memantine and placebo) based on the randomization schedule. The randomization schedule remained confidential throughout the study.
Study medication was titrated to the maximum daily dose during the first 4 weeks of the trial (dose titration phase) and from there on, subjects were maintained on maximum achieved dose until the end of the trial (dose maintenance phase). Titration of the study medication was guided by a flexible titration schedule which allowed for slower titration or maintaining at a lower dose, as guided by study clinician judgment of tolerability. Study medication was administered in divided dosages. Study medication was initiated at 2.5 mg/day (raised to 5 mg/day on day 4) and was up-titrated by 5 mg/week to a maximum dose of 20 mg/day.
The efficacy of memantine for the treatment of autism related impairments was assessed by the informant-rated Social Responsiveness Scale—Second Edition (SRS-2) as continuous outcome measure, and by the clinician-rated CGI-I subscale, as categorical outcome measure. Treatment response criteria for this trial was defined as≥25% improvement on the SRS-2 and a score of 2 or 1 on the CGI-I subscale, i.e., “much” or “very much improved.”
Additional treatment response of autism impairment was examined for the ASD subdomains by assessing change with treatment in the severity of the SRS-2 subscales and the Children's Yale Brown Obsessive Compulsive Scale modified for PDD (CY-BOCS-PDD) (Goodman et al., 1986 (Rev 89); Scahill et al., 2006) to assess change with treatment in the ritualistic behaviors associated with ASD. […]

In the case of `CC12CC3CC(C)(C1)CC(N)(C3)C2` [MEM, memantine], the “SRS-Social Awareness, ES [95% CI]” value (Cohen's d, MEM vs PBO) is reported as 0.74, the “SRS-Social Cognition, ES [95% CI]” value (Cohen's d, MEM vs PBO) is reported as 0.83 and the “ABC-Social Withdrawal” value (BL (baseline)) is reported as 12.5 ± 8.6. The CY-BOCS-PDD (BL (baseline)) was 2.9 ± 5.4, the “SRS-Autistic Mannerisms” value (BL (baseline)) was 21.1 ± 5.9 and the SRS-SCI (BL (baseline)) was 93.5 ± 17.0. The “SRS-Social Awareness” value (BL (baseline)) was 14.3 ± 3.0, the “SRS-Social Cognition” value (BL (baseline)) was 20.0 ± 3.9 and the “SRS-Social Communication” value (BL (baseline)) was 40.1 ± 8.1. The “SRS-Social Motivation” value (BL (baseline)) was 19.1 ± 6.9, the SRS-Total (BL (baseline)) was 114.5 ± 21.3 and the “ABC-Social Withdrawal” value (EP (endpoint)) was 5.6 ± 5.4. For the same compound, the CY-BOCS-PDD (EP (endpoint)) was 1.9 ± 4.0, the “SRS-Autistic Mannerisms” value (EP (endpoint)) was 13.4 ± 3.8 and the SRS-SCI (EP (endpoint)) was 63.8 ± 20.0. For the same compound, the “SRS-Social Awareness” value (EP (endpoint)) was 10.7 ± 3.0, the “SRS-Social Cognition” value (EP (endpoint)) was 13.7 ± 4.5 and the “SRS-Social Communication” value (EP (endpoint)) was 27.0 ± 10.4. For the same compound, the “SRS-Social Motivation” value (EP (endpoint)) was 12.4 ± 5.7, the SRS-Total (EP (endpoint)) was 77.0 ± 22.5 and the “ABC-Social Withdrawal” value (MD (mean difference)) was −6.9 ± 7.0. For the same compound, the CY-BOCS-PDD (MD (mean difference)) was −0.9 ± 2.1, the “SRS-Autistic Mannerisms” value (MD (mean difference)) was −7.8 ± 6.4 and the SRS-SCI (MD (mean difference)) was −29.8 ± 22.2. For the same compound, the “SRS-Social Awareness” value (MD (mean difference)) was −3.6 ± 3.9, the “SRS-Social Cognition” value (MD (mean difference)) was −6.3 ± 5.6 and the “SRS-Social Communication” value (MD (mean difference)) was −13.0 ± 9.4. The “SRS-Social Motivation” value (MD (mean difference)) was −6.8 ± 5.4, the SRS-Total (MD (mean difference)) was −37.6 ± 27.9 and the “≥25% ↓↓SRS + CGI-I ≤ 2, ES [95% CI]” value (Odds Ratio, MEM vs PBO) was 4.82.
